According to patent publication US6737383B1, “Herbicidal oxadiazolidines” (priority 1999, dated 2004):

Tests used:
purple nutsedge = assay: Test B pre/postemergence purple nutsedge; type: in vivo, Cyperus rotundus
Summary of the method: (§1)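 Response is a visual 0-to-10 score relative to untreated plants, where 0 means no effect and 10 means complete control, taken twelve to sixteen days after application. Treatments went onto soil at planting and onto foliage of 1- to 4-leaf plants, using a surfactant-containing non-phytotoxic solvent.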

pigweed = assay: Test B pre/postemergence pigweed; type: in vivo, Amaranthus retroflexus
Summary of the method: as §1

duck salad = assay: Test B flood test duck salad; type: in vivo, Heteranthera limosa
Summary of the method: (§2)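 Plants were grown to the 2-leaf stage before treatment with test chemical, then held in a greenhouse for twelve to sixteen days. Injury was visually rated against untreated controls on a 0–10 scale, where 0 is no effect and 10 is complete control.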

velvetleaf = assay: Test B pre/postemergence velvetleaf; type: in vivo, Abutilon theophrasti
Summary of the method: as §1

blackgrass = assay: Test B pre/postemergence blackgrass; type: in vivo, Alopecurus myosuroides
Summary of the method: as §1

rape = assay: Test B pre/postemergence rape; type: in vivo, Brassica napus
Summary of the method: as §1

surinam grass = assay: Test B pre/postemergence surinam grass; type: in vivo, Brachiaria decumbens
Summary of the method: as §1

corn = assay: Test B pre/postemergence corn; type: in vivo, Zea mays
Summary of the method: as §1

cocklebur = assay: Test B pre/postemergence cocklebur; type: in vivo, Xanthium strumarium
Summary of the method: as §1

giant foxtail = assay: Test B pre/postemergence giant foxtail; type: in vivo, Setaria faberii
Summary of the method: as §1

bedstraw = assay: Test B pre/postemergence bedstraw; type: in vivo, Galium aparine
Summary of the method: as §1

soybean = assay: Test B pre/postemergence soybean; type: in vivo, Glycine max
Summary of the method: as §1

sugar beet = assay: Test B pre/postemergence sugar beet; type: in vivo, Beta vulgaris
Summary of the method: as §1

morningglory = assay: Test B pre/postemergence morningglory; type: in vivo, Ipomoea hederacea
Summary of the method: as §1

bamyardgrass = assay: Test B flood test barnyardgrass; type: in vivo, Echinochloa crus-galli
Summary of the method: as §2

smallflower flatsedge = assay: Test B flood test smallflower flatsedge; type: in vivo, Cyperus difformis
Summary of the method: as §2

[1] = Preemergence, Rate 62 g/ha, scale of 0 to 10 where 0 is no effect and 10 is complete control
[2] = Preemergence, Rate 125 g/ha, 0 is no effect, 10 is complete control
[3] = Preemergence, Rate 250 g/ha, scale 0 to 10, 0 is no effect, 10 is complete control
[4] = Preemergence, Rate 500 g/ha, scale 0 to 10 (0 no effect, 10 complete control)
[5] = Rate 62 g/ha, Postemergence, scale of 0 to 10 where 0 is no effect and 10 is complete control
[6] = Rate 125 g/ha, Postemergence, scale 0 to 10
[7] = Rate 500 g/ha, Postemergence, scale 0 to 10
[8] = Rate 62 g/ha, headed Pre-emergence (flood test species), scale 0 to 10 (0 no effect, 10 complete control)
[9] = Rate 125 g/ha, Pre-emergence, flood test species, scale 0 to 10 where 0 is no effect and 10 is complete control
[10] = Rate 250 g/ha, Pre-emergence, flood-test species, scale 0 to 10, 0 is no effect, 10 is complete control
[11] = Rate 500 g/ha, headed Pre-emergence (flood test species), scale 0 to 10 (0 no effect, 10 complete control)

COc1nc(OC)nc(N(C(=O)n2oc(=O)n(-c3ccccc3C)c2=O)C(C)C)n1 [Compound 181]
0: Nutsedge plant response rating (purple nutsedge; [1]) | Nutsedge plant response rating (0 to 10 scale) (purple nutsedge; [2]) | Nutsedge plant response rating (purple nutsedge; [3]) | Nutsedge plant response rating (purple nutsedge; [4]) | Nutsedge plant response rating (purple nutsedge; [5]) | Nutsedge plant response rating (purple nutsedge; [6]) | Plant response rating (0 to 10; 0 is no effect, 10 is complete control), Nutsedge (purple nutsedge; Rate 250 g/ha, Postemergence) | Nutsedge plant response rating (purple nutsedge; [7]) | Redroot pigweed plant response rating (pigweed; [1]) | Redroot pigweed plant response rating (0 to 10 scale) (pigweed; [2]) | Redroot pigweed plant response rating (pigweed; [3]) | Redroot pigweed plant response rating (pigweed; [4]) | Redroot pigweed plant response rating (pigweed; [5]) | Redroot pigweed plant response rating (pigweed; [6]) | Plant response rating (0 to 10; 0 is no effect, 10 is complete control), Redroot pigweed (pigweed; Rate 250 g/ha, Postemergence) | Redroot pigweed plant response rating (pigweed; [7]) | Ducksalad plant response rating (duck salad; [8]) | Ducksalad plant response rating (duck salad; [9]) | Ducksalad plant response rating (duck salad; [10]) | Plant response rating, Ducksalad (duck salad; [11]) | Velvetleaf plant response rating (velvetleaf; [1]) | Velvetleaf plant response rating (velvetleaf; [3]) | Velvetleaf plant response rating (velvetleaf; [4]) | Velvetleaf plant response rating (velvetleaf; [6]) | Plant response rating (0 to 10; 0 is no effect, 10 is complete control), Velvetleaf (velvetleaf; Rate 250 g/ha, Postemergence) | Velvetleaf plant response rating (velvetleaf; [7]) | Blackgrass plant response rating (blackgrass; [1]) | Blackgrass plant response rating (0 to 10 scale) (blackgrass; [2]) | Blackgrass plant response rating (blackgrass; [3]) | Blackgrass plant response rating (blackgrass; [4]) | Blackgrass plant response rating (blackgrass; [5]) | Blackgrass plant response rating (blackgrass; [6]) | Plant response rating (0 to 10; 0 is no effect, 10 is complete control), Blackgrass (blackgrass; Rate 250 g/ha, Postemergence) | Blackgrass plant response rating (blackgrass; [7]) | Rape plant response rating (rape; [1]) | Rape plant response rating (0 to 10 scale) (rape; [2]) | Rape plant response rating (rape; [3]) | Rape plant response rating (rape; [4]) | Rape plant response rating (rape; [5]) | Rape plant response rating (rape; [6]) | Plant response rating (0 to 10; 0 is no effect, 10 is complete control), Rape (rape; Rate 250 g/ha, Postemergence) | Rape plant response rating (rape; [7]) | B. signalgrass plant response rating (surinam grass; [1]) | B. signalgrass plant response rating (0 to 10 scale) (surinam grass; [2]) | B. signalgrass plant response rating (surinam grass; [3]) | B. signalgrass plant response rating (surinam grass; [4]) | B. signalgrass plant response rating (surinam grass; [5]) | B. signalgrass plant response rating (surinam grass; Rate 125 g/ha, Postemergence, scale 0 (no effect) to 10 (complete control)) | Plant response rating, B. signalgrass (surinam grass; Rate 250 g/ha, Postemergence, scale 0 to 10, 0 is no effect, 10 is complete control) | B. signalgrass plant response rating (surinam grass; Rate 500 g/ha, Postemergence, scale 0 to 10, 0 no effect, 10 complete control) | Corn plant response rating (corn; [1]) | Corn plant response rating (0 to 10 scale) (corn; [2]) | Corn plant response rating (corn; [3]) | Corn plant response rating (corn; [4]) | Corn plant response rating (corn; [5]) | Corn plant response rating (corn; [6]) | Plant response rating (0 to 10; 0 is no effect, 10 is complete control), Corn (corn; Rate 250 g/ha, Postemergence) | Corn plant response rating (corn; [7]) | Cocklebur plant response rating (cocklebur; [1]) | Cocklebur plant response rating (0 to 10 scale) (cocklebur; [2]) | Cocklebur plant response rating (cocklebur; [3]) | Cocklebur plant response rating (cocklebur; [4]) | Cocklebur plant response rating (cocklebur; [5]) | Cocklebur plant response rating (cocklebur; [6]) | Plant response rating (0 to 10; 0 is no effect, 10 is complete control), Cocklebur (cocklebur; Rate 250 g/ha, Postemergence) | Cocklebur plant response rating (cocklebur; [7]) | Giant foxtail plant response rating (giant foxtail; [1]) | Giant foxtail plant response rating (0 to 10 scale) (giant foxtail; [2]) | Giant foxtail plant response rating (giant foxtail; [3]) | Giant foxtail plant response rating (giant foxtail; [4]) | Giant foxtail plant response rating (giant foxtail; [5]) | Giant foxtail plant response rating (giant foxtail; [6]) | Plant response rating (0 to 10; 0 is no effect, 10 is complete control), Giant foxtail (giant foxtail; Rate 250 g/ha, Postemergence) | Giant foxtail plant response rating (giant foxtail; [7]) | Bedstraw plant response rating (bedstraw; [1]) | Bedstraw plant response rating (0 to 10 scale) (bedstraw; [2]) | Bedstraw plant response rating (bedstraw; [3]) | Bedstraw plant response rating (bedstraw; [5]) | Bedstraw plant response rating (bedstraw; [6]) | Plant response rating (0 to 10; 0 is no effect, 10 is complete control), Bedstraw (bedstraw; Rate 250 g/ha, Postemergence) | Bedstraw plant response rating (bedstraw; [7]) | Soybean plant response rating (soybean; [1]) | Soybean plant response rating (0 to 10 scale) (soybean; [2]) | Soybean plant response rating (soybean; [3]) | Soybean plant response rating (soybean; [4]) | Soybean plant response rating (soybean; [5]) | Soybean plant response rating (soybean; [6]) | Plant response rating (0 to 10; 0 is no effect, 10 is complete control), Soybean (soybean; Rate 250 g/ha, Postemergence) | Soybean plant response rating (soybean; [7]) | Sugarbeets plant response rating (sugar beet; [1]) | Sugarbeets plant response rating (0 to 10 scale) (sugar beet; [2]) | Sugarbeets plant response rating (sugar beet; [3]) | Sugarbeets plant response rating (sugar beet; [4]) | Sugarbeets plant response rating (sugar beet; [5]) | Sugarbeets plant response rating (sugar beet; [6]) | Plant response rating (0 to 10; 0 is no effect, 10 is complete control), Sugarbeets (sugar beet; Rate 250 g/ha, Postemergence) | Sugarbeets plant response rating (sugar beet; [7]) | Morningglory plant response rating (morningglory; [1]) | Morningglory plant response rating (0 to 10 scale) (morningglory; [2]) | Morningglory plant response rating (morningglory; [3]) | Morningglory plant response rating (morningglory; [4]) | Morningglory plant response rating (morningglory; [5]) | Morningglory plant response rating (morningglory; [6]) | Plant response rating (0 to 10; 0 is no effect, 10 is complete control), Morningglory (morningglory; Rate 250 g/ha, Postemergence) | Morningglory plant response rating (morningglory; [7]) | Barnyardgrass plant response rating (bamyardgrass; [8]) | Barnyardgrass plant response rating (bamyardgrass; [9]) | Barnyardgrass plant response rating (bamyardgrass; [10]) | Plant response rating, Barnyardgrass (bamyardgrass; [11]) | S. Flatsedge plant response rating (smallflower flatsedge; [8]) | S. Flatsedge plant response rating (smallflower flatsedge; [9]) | S. Flatsedge plant response rating (smallflower flatsedge; [10]) | S. Flatsedge plant response rating (smallflower flatsedge; Rate 500 g/ha, Pre-emergence, flood test species, scale 0 to 10 (0 no effect, 10 complete control))
